Measurements as given in patent US20220160751A1, “METHODS OF TREATMENT OF DISEASES AND DISORDERS ASSOCIATED WITH INCREASED TET LEVEL, INCREASED H19 LEVEL, INCREASED LEVEL OF TGF SIGNALING, OR ANY COMBINATION THEREOF” (YALE UNIVERSITY, priority 2019, published 2022).

Legend:
[1] = test system: TGFB1, TSP1 and TGFBR2 promoters; assay: ChIP-qPCR and QMSP in LX-2 cells; type: cell-based, human; details: 48 h, vs siCon
Protocol: The assays were carried out as previously described in (Zhou J et al., 2015, Nat Commun 6:10221; Zhong T et al., 2016, Oncogene 36:2345-2354) with minor modifications. Briefly, gDNA was extracted from LX-2 cells in 24-well plates using Quick-gDNA MicroPrep (Zymo Research Corporation, Irvine, Calif.; D3021). For bisulfite treatment using EZ DNA Methylation-Gold Kit (Zymo, D5006), 90-500 ng of gDNA was used per column and 20-40 μl of elution buffer was used to elute DNA from each column. qPCR was performed in a 15 μl reaction containing 5 μl of eluted DNA using iQSYBRGreen (Bio-Rad, Hercules, Calif.; 1708880) in a Bio-Rad iCycler. PCR was conducted by initial denaturation at 95° C. for 5 min, followed by 40 cycles of 30 sec at 95° C., 30 sec at 60° C., and 30 sec at 72° C. Two sets of PCR primers were designed: one for unmethylated and one for methylated DNA sequences. The PCR primers for methylated DNA were used at a final concentration of 0.6 μM in each PCR reaction. The relative levels of methylated versus unmethylated DNA sequences are presented.
These experiments were performed as previously described (Zhou J et al., 2015, Nat Commun 6:10221) with minor modifications. Briefly, experiments were performed in a 10-cm plate scale using Chromatin Prep Module Kit (Thermo, catalog number 26158) according to the manufacturer's instructions. Agarose beads were used to pre-bind overnight with antibodies against TET3 (Millipore Sigma, ABE290), H3K4me3 (Cell signaling, C42D8) and H3K27me3 (Cell signaling, C36B11). Preimmune IgG was used as a negative control. LX-2 cells were cross-linked with 1% formaldehyde at RT for 10 min and the reaction was stopped by 1× glycine. ChIPs were carried out overnight at 4° C. Primers (Table 1) for the specific promoter regions of TGFB1, TSP1, and TGFBR2 were used to amplify input and ChIP-purified DNA. The relative enrichments of the indicated DNA regions were calculated using the Percent Input Method according to the manufacturer's instructions and were normalized to % input. Data are presented after normalization against background IgG signals.

[2] = test system: UtLM and ht-UtLM leiomyoma cells; assay: RT-qPCR and Western blot of gene expression in leiomyoma cells; type: cell-based, human
Excerpt: Antibodies for TET3 (GeneTex, GTX121453; used at a dilution of 1/500), TGFBR2 (Abcam, ab184948; used at a dilution of 1/1000), TSP1 (Abcam, ab85762; used at a dilution of 1/500), MED12 (Novus Biological, NB100-2357; used at a dilution of 1/500), HMGA2 (Proteintech, 20795-1-AP; used at a dilution of 1/500), GRAF1 (Cell Signaling, 8802; used at a dilution of 1/500), SPARC (Cell Signaling, 8725; used at a dilution of 1/500), COL3A1 (LS-Bio, LS-C159386; used at a dilution of 1/1000), COL4A1 (LS-Bio, LS-C100552; used at a dilution of 1/500), COL5A2 (Origene, TA809611; used at a dilution of 1/500) and GAPDH (Abcam, ab128915; used at a dilution of 1/10000) were purchased. Human H19 siRNA (siH19) and control siRNA (siCon) were previously described (Ghazal S et al., 2015, EMBO Mol Med 7:996-1003). siTET3 (Ambion, 4392420/s47239), estradiol ([…], Sigma), and progesterone ([…], Sigma) were purchased. Estradiol and progesterone were dissolved in DMSO and used at a final concentration of 10^-8M. ht-UtLM cells tested negative for mycoplasma contamination were maintained in MEM (Sigma, #M3024) supplemented with 20% fetal bovine serum, 1×MEM Vitamin Solution (Invitrogen #11120-052), 1×MEM Amino Acids Solution (Invitrogen, #11130-051), and 1×MEM Non-Essential Amino Acids (Invitrogen #11140-050). Primary UtLM-1 and UtLM-2 cells were maintained in DMEM (Gibco, #10567014) supplemented with 20% fetal bovine serum, and 1% penicillin/streptomycin, 1% amphotericin B. All cells were transfected in a 24-well plate scale. To prepare siRNA transfection solution for each well, 10 pmol (5 pmol for primary cells) of siCon, siH19, or siTET3 were mixed with 25 μl of OPTI-MEM by gentle pipetting. In parallel, 1 μl of Lipofectamine 3000 was mixed with 25 μl of OPTI-MEM. Following 5 min of incubation at room temperature, the two were mixed by gentle inverting and incubated for 10 min at room temperature to allow siRNA/lipid complexes to form. At the end of incubation, the 50 μl of transfection solution was used to re-suspend the cell pellet (3×10^4 cells). After incubation at room temperature for 10 min, growth medium was added at a ratio of 1:9 (1 volume of transfection solution/9 volumes of growth medium), and the cell suspension was transferred to a new culture dish. After overnight incubation in a tissue culture incubator, the medium was replaced with fresh growth medium. For iLet 7 rescue experiments, 10 pmol of siCon/siH19 and 10 pmol of iCon/iLet7 were used for each well of 3×10^4 cells. RNA, genomic DNA, and protein were extracted and analyzed at the indicated time points following transfection.

siTET3: TET3-specific siRNA (human), Ambion 4392420/s47239 (sense CAGCAACUCCUAGAACUGATT; antisense UCAGUUCUAGGAGUUGCUGGA; chemistry not given here)
H3K4me3 association with promoters [1]: significantly decreased H3K4me3
H3K27me3 association with promoters [1]: increased H3K27me3
binding of TET3 to TGFB1, TSP1 and TGFBR2 promoters (ChIP-qPCR) [1]: significantly reduced
methylation in the CTRRs of TGFB1, TSP1 and TGFBR2 (QMSP) [1]: increase in methylation in the CTRRs
ratios of H3K4me3/H3K27me3 [1]: decreased significantly
protein levels of MED12, TGFBR2, TSP1, GRAF1, SPARC, COL5A2, COL4A1, COL3A1 (Western blot) ([2]; UtLM cells, vs siCon): all decreased
MED12 expression ([2]; ht-UtLM cells): lack of effects
mRNA expression of TET3, MED12, TGFBR2, TSP1, GRAF1, SPARC, COL3A1, COL4A1 and COL5A2 ([2]; primary human leiomyoma cells and ht-UtLM, 48 h, vs siCon): results similar to those of H19 knockdown were obtained
